A word on the GI50: it is the concentration giving 50% growth inhibition.

Among the test systems are NCI-H460; 786-0; SF-295; EKVX; HCT-15; OVCAR-5; A549; SNB-75; HCT-116; MCF7; SF-268; NCI-H522; LOX IMVI; HOP-62; NCI-H226; UO-31; A498; K562; HOP-92; MDA-MB-435.
Holding throughout (test): DTP human tumour cell line panel, 48 h

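How tested: cells in 96-well plates exposed to compound for 48 hours at five concentrations. GI50: concentration for 50% inhibition of growth.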 Calls of active or inactive are those of the source. No stated cut-off is given here; in the data, active = GI50 up to about 1.1 µM and inactive = higher.

On to `CC12ON=C(c3ccccc3)N1C=CN1C(c3ccccc3)=NOC12` (stereo unspecified), for which the GI50 is > 100 µM (inactive) in the test on NCI-H460; > 100 µM (inactive) in the test with 786-0; > 100 µM (inactive) in the test with SF-295; > 100 µM (inactive) in the test with EKVX; greater than 100 µM in the test on HCT-15; > 100 µM (inactive) in the test on OVCAR-5. Further, the GI50 with A549 was > 100 µM (inactive); in the test on SNB-75 it was > 100 µM (inactive); with HCT-116 it was 98.6 µM (inactive); in the test on MCF7, > 100 µM (inactive); in the test with SF-268, > 100 µM (inactive); with NCI-H522 it was > 100 µM (inactive). Further, the GI50 with LOX IMVI, with HOP-62, with NCI-H226 and with UO-31 was > 100 µM (inactive) throughout.
Turning to `CN(C)/C=N\c1cc[nH]c(=O)n1`, the GI50 in the test on NCI-H460 is > 100 µM (inactive); with 786-0, > 100 µM (inactive); in the test with SF-295, > 100 µM (inactive); in the test with EKVX, > 100 µM (inactive); in the test with HCT-15, greater than 100 µM; with OVCAR-5, > 100 µM (inactive). Also, the GI50 in the test on A549, in the test on A498, in the test with K562, in the test with SNB-75, in the test on HCT-116 and in the test on SF-268 was > 100 µM (inactive) each time. Further, the GI50 in the test with NCI-H522, with LOX IMVI, in the test with HOP-92, with HOP-62, in the test with NCI-H226 and in the test with UO-31 was > 100 µM (inactive) throughout.
In the case of `CCCC(=O)n1[nH]c(=O)n(C(C)(C)C)c1=O`, the GI50 was > 100 µM (inactive) in the test with NCI-H460; > 100 µM (inactive) in the test with 786-0; > 100 µM (inactive) in the test on MDA-MB-435; > 100 µM (inactive) in the test on SF-295; > 100 µM (inactive) with EKVX; greater than 100 µM in the test on HCT-15. Moreover, the GI50 was > 100 µM (inactive) in the test with OVCAR-5; > 100 µM (inactive) with A549; > 100 µM (inactive) in the test on K562; 39.5 µM (inactive) in the test with SNB-75; > 100 µM (inactive) in the test on HCT-116; > 100 µM (inactive) with MCF7. Also, the GI50 in the test with SF-268, in the test on LOX IMVI, with HOP-62, in the test on NCI-H226 and with UO-31 was > 100 µM (inactive) throughout.
For the compound `On1c(-c2ccccc2)c(-c2ccccc2N2CCCC2)c2ccccc21`, the GI50 in the test on NCI-H460 was > 100 µM (inactive); in the test with 786-0 it was > 100 µM (inactive); with SF-295, > 100 µM (inactive); in the test with EKVX, > 100 µM (inactive); with HCT-15, greater than 100 µM; in the test on OVCAR-5, > 100 µM (inactive). The GI50 with A549, in the test with A498, in the test on K562, in the test on SNB-75, in the test on HCT-116 and in the test on SF-268 was > 100 µM (inactive) each time. For the same compound, the GI50 in the test on NCI-H522, with LOX IMVI, with HOP-92, in the test with HOP-62 and with NCI-H226 was > 100 µM (inactive) each time.
Consider `CCOC(=O)CNc1c(OCc2ccccc2)c(=O)c1=O`, for which the GI50 in the test on 786-0 is > 100 µM (inactive); with MDA-MB-435, > 100 µM (inactive); with SF-295, > 100 µM (inactive); in the test with EKVX, > 100 µM (inactive); in the test on HCT-15, greater than 100 µM; in the test with OVCAR-5, > 100 µM (inactive). In addition, the GI50 in the test with A549, in the test on K562, in the test with SNB-75, in the test on HCT-116, in the test with MCF7 and with SF-268 was > 100 µM (inactive) in each case. For the same compound, the GI50 with NCI-H522, with HOP-62, in the test with NCI-H226 and in the test on UO-31 was > 100 µM (inactive) in each case.
`Cc1ccc(/N=N/C2S/C(=C(\C#N)c3nc4ccccc4[nH]3)N(c3ccccc3)C2=O)cc1` (stereo unspecified): the GI50 in the test with NCI-H460 is > 100 µM (inactive); in the test with 786-0, 27.3 µM (inactive); in the test on SF-295 it was 42.6 µM (inactive); with EKVX, > 100 µM (inactive); in the test with HCT-15 it was greater than 100 µM; in the test on OVCAR-5, 85.1 µM (inactive). Besides, the GI50 with A549 is 88.1 µM (inactive); with A498, > 100 µM (inactive); in the test with K562, 20.4 µM (inactive); with SNB-75 it was 29.2 µM (inactive); with HCT-116 it was 90.2 µM (inactive); in the test on SF-268, > 100 µM (inactive). In addition, the GI50 in the test with NCI-H522 was > 100 µM (inactive); in the test on LOX IMVI, 19.9 µM (inactive); with HOP-92 it was 37.3 µM (inactive); with HOP-62, 30.1 µM (inactive); with NCI-H226, > 100 µM (inactive); in the test with UO-31 it was 39 µM (inactive).
Consider `Cc1ccc(NC(=O)CC2C(=O)Nc3ccccc3S2(=O)=O)cc1C` (stereo unspecified), for which the GI50 in the test on NCI-H460 was > 100 µM (inactive); with 786-0 it was > 100 µM (inactive); in the test with SF-295, > 100 µM (inactive); in the test with EKVX, > 100 µM (inactive); in the test with HCT-15 it was greater than 100 µM; with OVCAR-5, > 100 µM (inactive). The GI50 is > 100 µM (inactive) in the test with A549; > 100 µM (inactive) in the test on A498; > 100 µM (inactive) in the test on K562; > 100 µM (inactive) in the test with SNB-75; > 100 µM (inactive) in the test on HCT-116; > 10 µM (inactive) in the test on SF-268. Further, the GI50 in the test with NCI-H522, in the test with LOX IMVI, with HOP-92, with NCI-H226 and in the test with UO-31 was > 100 µM (inactive) each time.
For the compound `COC(=O)/C(=C/c1ccc(OC)cc1)C(C(=O)O)=C1CCCCC1`, the GI50 in the test with NCI-H460 is > 100 µM (inactive); in the test on 786-0, > 100 µM (inactive); in the test on SF-295 it was > 100 µM (inactive); with EKVX, > 100 µM (inactive); in the test with HCT-15, greater than 100 µM; with OVCAR-5, > 100 µM (inactive). The GI50 in the test with A549, in the test on A498, with K562, in the test on SNB-75, in the test on HCT-116 and in the test with NCI-H522 was > 100 µM (inactive) in each case. Also, the GI50 with LOX IMVI, in the test on HOP-92, in the test on HOP-62, in the test with NCI-H226 and with UO-31 was > 100 µM (inactive) each time.
On to `CN1C2(c3ccccc3)c3c(-c4ccccc4)sc(-c4ccccc4)c3C1(c1ccccc1)C1C(=O)N(c3ccccc3)C(=O)C12` (stereo unspecified), for which the GI50 with NCI-H460, in the test with 786-0, in the test with SF-295, with EKVX, with OVCAR-5 and with A549 was > 100 µM (inactive) throughout. Also, the GI50 with A498, with K562, in the test on SNB-75, in the test on HCT-116, in the test on SF-268 and with NCI-H522 was > 100 µM (inactive) in each case. The GI50 with LOX IMVI, with HOP-92, in the test with HOP-62, with NCI-H226 and in the test with UO-31 was > 100 µM (inactive) each time.
For `C=CC1(CC)/C(=N\O)C(CC)(CC)C(=O)N1O` (stereo unspecified), the GI50 with NCI-H460 is > 100 µM (inactive); with 786-0, > 100 µM (inactive); in the test on SF-295, > 100 µM (inactive); in the test with EKVX it was > 100 µM (inactive); in the test with HCT-15, greater than 100 µM; in the test with OVCAR-5, > 100 µM (inactive). Moreover, the GI50 with A549, in the test on A498, with K562, in the test on SNB-75, in the test on HCT-116 and in the test with NCI-H522 was > 100 µM (inactive) in each case. Moreover, the GI50 with LOX IMVI was > 100 µM (inactive); in the test on HOP-92 it was 93.8 µM (inactive); in the test with HOP-62 it was > 100 µM (inactive); with NCI-H226 it was > 100 µM (inactive); in the test on UO-31, > 100 µM (inactive).
Regarding `CN1C(c2ccccc2)CC(O)CC1c1ccccc1` (stereo unspecified), the GI50 with NCI-H460 is > 100 µM (inactive); with 786-0, > 100 µM (inactive); in the test on SF-295, > 100 µM (inactive); in the test with EKVX, > 100 µM (inactive); in the test on HCT-15 it was greater than 100 µM; with OVCAR-5, > 100 µM (inactive). In addition, the GI50 in the test on A549, with A498, in the test on K562, in the test on SNB-75, in the test with HCT-116 and in the test with SF-268 was > 100 µM (inactive) throughout. For the same compound, the GI50 in the test on NCI-H522, in the test with LOX IMVI, in the test with HOP-92, with HOP-62, with NCI-H226 and in the test with UO-31 was > 100 µM (inactive) throughout.
In the case of `O=c1ccn([C@H]2CSC[C@@H](CO)C2)c(=O)[nH]1`, the GI50 was > 100 µM (inactive) in the test with NCI-H460; > 100 µM (inactive) in the test on 786-0; > 10 µM (inactive) in the test with SF-295; > 100 µM (inactive) with EKVX; greater than 100 µM in the test on HCT-15; > 100 µM (inactive) with OVCAR-5. For the same compound, the GI50 in the test on A549 was > 100 µM (inactive); in the test on A498, > 100 µM (inactive); in the test on K562 it was > 100 µM (inactive); in the test with SNB-75, 56.4 µM (inactive); in the test with HCT-116, > 100 µM (inactive); with SF-268, > 100 µM (inactive). The GI50 in the test with NCI-H522, with LOX IMVI, in the test on HOP-92, in the test with HOP-62, with NCI-H226 and in the test with UO-31 was > 100 µM (inactive) in each case.

The values are drawn from ChEMBL document CHEMBL1201862, “PubChem BioAssay data set” (2004).
